Drawing on patent US6916927B2, “Pyrazolopyrimidinones which inhibit type 5 cyclic guanosine 3′,5′-monophosphate phosphodiesterase (cGMP-PDE5) for the treatment of sexual dysfunction” (Pfizer Inc., priority 1997, dated 2005), this text covers IC50 for twelve molecules.

Broadly, the IC50 is the concentration at which inhibition is half-maximal. Low values mean greater potency in that assay, high ones weaker potency in that assay.

SMILES strings stand for the structures.

This assay concerns the target cGMP-specific PDE (PDE5) (UniProt O76074). Nature of the assay: In vitro PDE inhibitory activity (IC50) against cGMP PDE5. It is filed as biochemical, human or rabbit. Particulars: in vitro activities as inhibitors of cGMP PDE5. How it is done:
In vitro PDE inhibitory activities against cyclic guanosine 3′,5′-monophosphate (cGMP) and cyclic adenosine 3′,5′-monophosphate (cAMP) phosphodiesterases were determined by measurement of their IC50 values (the concentration of compound required for 50% inhibition of enzyme activity).
The required PDE enzymes were isolated from a variety of sources, including human corpus cavernosum, human and rabbit platelets, human cardiac ventricle, human skeletal muscle and bovine retina, essentially by the method of W. J. Thompson and M. M. Appleman (Biochem., 1971, 10, 311). In particular, the cGMP-specific PDE (PDE5) and the cGMP-inhibited cAMP PDE (PDE3) were obtained from human corpus cavernosum tissue, human platelets or rabbit platelets; the cGMP-stimulated PDE (PDE2) was obtained from human corpus cavernosum; the calcium/calmodulin (Ca/CAM)-dependent PDE (PDE1) from human cardiac ventricle; the cAMP-specific PDE (PDE^4) from human skeletal muscle; and the photoreceptor PDE (PDE6) from bovine retina.
Assays were performed using a modification of the “batch” method of W. J. Thompson et al. (Biochem., 1979, 18, 5228).
Molecule `CCCOc1ccc(S(=O)(=O)N2CCN(CC)CC2)cc1-c1nc2c(CCC)n(CCN3CCOCC3)nc2c(=O)[nH]1` [Example 108, 5-[5-(4-Ethylpiperazin-1-ylsulphonyl)-2-n-propoxyphenyl]-2-(2-morphin-4-ylethyl)-3-n-propyl-2,6-dihydro-7H-pyrazolo[4,3-d]pyrimidin-7-one] gave an IC50 of 2.1 nM. Molecule `CCCOc1ccc(S(=O)(=O)N2CCN(C)CC2)cc1-c1nc2c(CCC)nn(Cc3ncnn3C)c2c(=O)[nH]1` [Example 31, 5-[5-(4-Methylpiperazin-1-ylsulphonyl)-2-n-propoxyphenyl]-1(1-methyl-1,2,4-triazol-5-yl)methyl-3-n-propyl-1,6-dihydro-7H-pyrazolo-[4,3-d]pyrimidin-7-one] registered a 50% inhibitory concentration (IC50) of 4 nM. In turn, `CCCc1nn(Cc2ccccc2)c2c(=O)[nH]c(-c3cc(S(=O)(=O)N4CCN(C)CC4)ccc3OCC)nc12` [Example 41, 1-Benzyl-5-[2-ethoxy-5-(4-methylpiperazin-1-ylsulphonyl)phenyl]-3-n-propyl-1,6-dihydro-7H-pyrazolo[4,3-d]pyrimidin-7-one] returned an IC50 of 3.9 nM.

For the molecule `CCCc1c2nc(-c3cc(S(=O)(=O)N4CCN(C)CC4)ccc3OCC)[nH]c(=O)c2nn1Cc1ccccc1` [Example 87, 2-Benzyl-5-[2-ethoxy-5-(4-methylpiperazin-1-ylsulphonyl)phenyl]-3-n-propyl-2,6-dihydro-7H-pyrazolo[4,3-d]pyrimidin-7-one], the IC50 worked out at 12 nM. With `CCCOc1ccc(S(=O)(=O)N2CCN(CCO)CC2)cc1-c1nc2c(CCC)nn(Cc3ccccn3)c2c(=O)[nH]1` [Example 4, 5-{5-[4-(2-Hydroxyethyl)piperazin-1-ylsulphonyl]-2-n-propoxyphenyl}-3-n-propyl-1-(pyridin-2-yl)methyl-1,6-dihydro-7H-pyrazolo[4,3-d]pyrimidin-7-one] the figure was 2.2 nM; with `CCCOc1ccc(S(=O)(=O)N2CCN(C)CC2)cc1-c1nc2c(CCC)n(-c3ncccn3)nc2c(=O)[nH]1` [Example 125, 5-[5-(4-Methylpipierazin-1-ylsulphonyl)-2-n-propoxyphenyl]-3-n-propyl-2-pyrimidin-2-yl-2,6-dihydro-7H-pyrazolo[4,3-d]pyrimidin-7-one], 2.8 nM. As to `CCCOc1ccc(S(=O)(=O)N2CCN(C)CC2)cc1-c1nc2c(CCC)n(Cc3ncnn3C)nc2c(=O)[nH]1` [Example 77, 5-[5-(4-Methylpiperazin-1-ylsulphonyl)-2-n-propoxyphenyl]-2-(1-methyl-1,2,4-triazol-5-yl)methyl-3-n-propyl-2,6-dihydro-7H-pyrazolo[4,3-d]pyrimidin-7-one], the concentration for half-maximal inhibition (IC50) came out at 7.1 nM. `CCCOc1ccc(S(=O)(=O)N2CCN(CC)CC2)cc1-c1nc2c(CCC)nn(CCN3CCOCC3)c2c(=O)[nH]1` [Example 100, 5-[5-(4-Ethylpiperazin-1-ylsulphonyl)-2-n-propoxyphenyl]-1-(2-morpholin-4-ylethyl)-3-n-propyl-1,6-dihydro-7H-pyrazolo[4,3-d]pyrimidin-7-one]: it took 1.9 nM to reach half-maximal inhibition (IC50). With `CCCOc1ccc(S(=O)(=O)N2CCN(CC)CC2)cc1-c1nc2c(CCC)n(-c3ccccc3NS(C)(=O)=O)nc2c(=O)[nH]1` [Example 117, 5-[5-(4-Ethylpiperazin-1-ylsulphonyl)-2-n-propoxyphenyl]-2-(2-methanesulphonamidophenyl)-3-n-propyl-2,6-dihydro-7H-pyrazolo[4,3-d]-pyrimidin-7-one] the figure was 3.2 nM; with `CCCOc1ccc(S(=O)(=O)N2CCN(CC)CC2)cc1-c1nc2c(CCC)n(Cc3cccc[n+]3[O-])nc2c(=O)[nH]1` [Example 129, 5-[5-(4-Ethylpiperazin-1-ylsulphonyl)-2-n-propoxyphenyl]-2-(1-oxidopyridin-2-yl)methyl-3-n-propyl-2,6-dihydyro-7H-pyrazolo[4,3-d]pyrimidin-7-one], 6.5 nM. In the case of `CCCc1c2nc(-c3cc(S(=O)(=O)N4CCN(C)CC4)ccc3OCC)[nH]c(=O)c2nn1CC1CCC1` [Example 126, 2-Cyclobutylmethyl-5-[2-ethoxy-5-(4-methylpiperazin-1-ylsulphonyl)phenyl]-3-n-propyl-2,6-dihydro-7H-pyrazolo[4,3-d]pyrimidin-7-one], the IC50 is 9.2 nM.

`CCCOc1ccc(S(=O)(=O)N2CCN(CCO)CC2)cc1-c1nc2c(CCC)n(Cc3ccccn3)nc2c(=O)[nH]1` [Example 7, 5-{5-[4-(2-Hydroxyethyl)piperazin-1-ylsulphonyl]-2-n-propoxyphenyl}-3-n-propyl-2-(pyridin-2-yl)methyl-2,6-dihydro-7H-pyrazolo[4,3-d]pyrimidin-7-one] returned an IC50 of 2.6 nM.
